Experimental data published in patent EP0954520B1, “ISOFLAVONE DERIVATIVES, PROCESSES FOR THE PREPARATION THEREOF AND PHARMACEUTICAL COMPOSITIONS CONTAINING THEM” (CHIESI FARMACEUTICI S.p.A., priority 1997, dated 1998).

Experiments:
estrogen receptors = target: T1, estrogen receptors (Bos taurus, UniProt P49884); assay: biochemical
T1 sequence (P49884 1-596): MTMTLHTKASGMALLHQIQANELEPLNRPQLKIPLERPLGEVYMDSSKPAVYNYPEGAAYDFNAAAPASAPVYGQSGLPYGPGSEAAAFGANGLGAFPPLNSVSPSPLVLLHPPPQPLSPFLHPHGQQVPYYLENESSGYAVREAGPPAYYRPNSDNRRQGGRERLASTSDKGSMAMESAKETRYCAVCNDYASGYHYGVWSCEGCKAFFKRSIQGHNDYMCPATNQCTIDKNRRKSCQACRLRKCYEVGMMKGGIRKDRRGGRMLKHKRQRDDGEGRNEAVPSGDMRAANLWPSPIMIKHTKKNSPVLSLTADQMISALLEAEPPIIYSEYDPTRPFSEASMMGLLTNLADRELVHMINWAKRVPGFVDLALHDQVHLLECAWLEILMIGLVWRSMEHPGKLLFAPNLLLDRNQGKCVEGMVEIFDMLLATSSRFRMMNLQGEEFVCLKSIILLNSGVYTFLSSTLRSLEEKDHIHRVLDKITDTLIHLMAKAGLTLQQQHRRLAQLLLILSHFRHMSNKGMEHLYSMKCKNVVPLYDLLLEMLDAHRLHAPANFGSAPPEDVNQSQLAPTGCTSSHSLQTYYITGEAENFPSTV
Experimental: To determine the estrogen receptor binding affinity of CHF 3316.01 calf uterus, prepared as previously described in McGuire W. L. et al. Eds. Estrogen receptors in human breast cancer, Raven Press N. Y., (1975), was used as source of estrogen receptors.
Displacement curves were generated using final concentrations of 1.5 nM 17b-[3H]estradiol as radioligand and (1)/(2) [formula] -log unit increments of CHF 3316.01, ranging from 0.1 to 10,000 nM.
Incubation time was 24 hr at 4°C, after which dextran-treated charcoal was added. The suspension was then centrifuged, and radioactivity in the supernatant fluid was determined by scintillation counting. Percent binding was determined in duplicate at each concentration of displacing ligand.
IC50 value for 50 % inhibition of 17b-[3H]estradiol binding and Ki value were determined by non linear regression analysis of log concentration-displacement curves.

immature rats = assay: Uterotrophic and antiuterotrophic actions in immature rat assay (uterine weight); type: in vivo; conditions: for suppression of estradiol's activity (uterotrophic action): with 17b-estradiol
Experimental: The uterotrophic and antiuterotrophic actions of CHF 3316.01 were studied to determine the estrogenic and antiestrogenic activity of CHF 3316.01 in immature rat assay. All experiments were conducted using subcutaneous injection of the test compound as a solution in 20% Solutol HS 15. Each experiment was accompained by a vehicle control group and a positive control group (17b-estradiol 2 mg/kg by subcutaneous injection). The test protocol was based on the immature rat assay protocol described by […]. and […] Endocr (1978), 99, 445-464. Animals were dosed on 3 successive days with the appropriate material. Animals were killed by an overdose of CO2 24 hr after the final dose. The body of the uterus was cut just above its junction with the cervix and at the junction of the uterine horns with the ovaries. The uterus was then weighed. Generally, 6 animals per exposure group were employed. The daily dose levels used for CHF 3316.01 were 10 and 20 mg/kg.

[1] = system: fetal rat long bones (radius and ulna); assay: Bone resorption in fetal rat long bone culture (bPTH 1-34 induced 45Ca release); conditions: for inhibition of 45Ca release induced by bPTH: bPTH 1-34 5 nM, 5 days culture
[2] = system: fetal rat long bones (radius and ulna); assay: as above; type: cell-based; conditions: 5 nM, day 5; n=7
Experimental: Pregnant Sprague-Dawley rats were injected subcutaneously with 0.2 mCi 45Ca (CaCl2, >10 Ci/g) on the 18th day of gestation (day of vaginal plug discovery equals day 0 of pregnancy).
To remove freely exchangeable 45Ca, bones were pre-incubated for 24 hours in 48-well polystyrene culture dishes (Costar, Cambridge, MA) containing 500 µl of a culture medium (BGJ-B medium) in an air humidified incubator at 37°C in 5% C02.
The medium was changed after 2 days.

Molecule: Cl.O=C(c1ccc(OCCN2CCCCC2)cc1)c1oc2cc(O)ccc2c(=O)c1-c1ccc(O)cc1 [CHF 3316.01, 4',7-dihydroxy-2-(4-(2-(N-piperidinyl)ethyloxy)benzoyl)isoflavone hydrochloride]
- Ki (estrogen receptors): 3.9 ± 0.3 nM
- suppression of estradiol's activity (uterotrophic action) (immature rats; 10 mg/Kg per day subcutaneous, 3 days): 63%
- suppression of estradiol's activity (uterotrophic action) (immature rats; 20 mg/Kg per day subcutaneous, 3 days): 78%
- uterotrophic activity (immature rats; 10 and 20 mg/kg per day subcutaneous, 3 days): devoid of uterotrophic activity
- inhibition of 45Ca release induced by bPTH ([1]; 3 mM (so in the source)): 24.81±2.14%
- inhibition of 45Ca release induced by bPTH ([1]; 10 mM (so in the source)): 37.86%
- inhibition of 45Ca release induced by bPTH ([1]; 30 mM (so in the source)): full inhibition
- IC50 ([1]; Rattus norvegicus, read-out: apparent IC50 value): 10000 nM
- potency relative to M3 (more potent) ([1]; versus metabolite 3 of ipriflavone M3): ~2 fold

Molecule: bPTH 1-34: bovine parathyroid hormone fragment 1-34, used to induce resorption (AVSEIQFMHNLGKHLSSMERVEWLRKKLQDVHNF; Parathyroid hormone; UniProt P01268 32-65, looked up, fragment)
- 45Ca release, treated over control (T/C) ratio [2]: 4.27±0.33

Molecule: C[C@]12CC[C@@H]3c4ccc(O)cc4CC[C@H]3[C@@H]1CC[C@@H]2O [17b-estradiol, reference compound]
- increase of uterine weight above vehicle control group (immature rats; 2 mg/kg subcutaneous, three successive daily injections, immature rats): 93%

Molecule: O=c1c(-c2ccc(O)cc2)coc2cc(O)ccc12 [Example M2, 4',7-dihydroxyisoflavone, reference compound]
- Ki (estrogen receptors): 127 nM

Molecule: O=P(O)(O)C(Cl)(Cl)P(=O)(O)O [Disodium clodronate, dichloromethylene bisphosphonate, reference compound]
- inhibition at 5 µM ([1]; Rattus norvegicus, 120 h, read-out: inhibition of resorption): 90 ± 5%
